The text below walks through data of PubChem BioAssay (NCI).

Among the test systems are EKVX NSCLC; HOP-62 NSCLC; LOX IMVI melanoma; MDA-N; NCI/ADR-RES ovarian; SF-295 CNS; SK-MEL-28 melanoma; SW-620 colon; TK-10 renal; UO-31 renal; A498 renal.
Common to all, as to test: inhibition of tumour cell growth, NCI panel, 48 h

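Five compound concentrations were applied to cells in 96-well plates for 48 hours; endpoints were derived by simple linear interpolation of the resulting dose-response curve. GI50: concentration for 50% inhibition of growth. Definition used: TGI = concentration required for complete inhibition of growth.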 Where a SMILES comes first, the peptide text is derived from it. The star is where a group is joined. Boc = CC(C)(C)OC(=O)*; OBn = c1ccc(CO*)cc1; Bn = c1ccc(C*)cc1

With `Nc1nc(-c2ccccc2)cc(-c2ccc(F)cc2)c1-c1ccc(Cl)cc1`, the TGI in the test with EKVX NSCLC, in the test on HOP-62 NSCLC, in the test with LOX IMVI melanoma, in the test on MDA-N, with NCI/ADR-RES ovarian and in the test with SF-295 CNS was > 100 µM throughout. Besides, the TGI with SK-MEL-28 melanoma, with SW-620 colon, in the test with TK-10 renal and in the test with UO-31 renal was > 100 µM throughout.
For `CCOC(=O)Cn1c(=O)c2cc(C)cc3c(Cl)nc4c(OC)c(OC)cc1c4c32`, the TGI in the test with EKVX NSCLC, in the test on HOP-62 NSCLC, in the test with LOX IMVI melanoma, in the test on MDA-N, with NCI/ADR-RES ovarian and in the test with SF-295 CNS was > 100 µM each time. Also, the TGI with SK-MEL-28 melanoma, in the test with SW-620 colon, in the test with TK-10 renal and in the test on UO-31 renal was > 100 µM each time.
`COc1c2c(cc3oc(=O)ccc13)OC(C)(C)C=C2`: the TGI in the test on EKVX NSCLC was > 125 µM; with HOP-62 NSCLC, > 125 µM; with LOX IMVI melanoma, 41.8 µM; in the test with MDA-N, 91.7 µM; in the test on NCI/ADR-RES ovarian it was 70.6 µM; in the test with SF-295 CNS, > 125 µM. In addition, the TGI with SK-MEL-28 melanoma was 75.9 µM; with SW-620 colon it was 84.6 µM; in the test with TK-10 renal it was > 125 µM; with UO-31 renal it was 73.6 µM.
As for `C=CCCCN1C(=O)C2C3c4ccccc4C(C=O)(c4ccccc43)C2C1=O` (centres undefined), the TGI with EKVX NSCLC was determined as 20.7 µM; with HOP-62 NSCLC, 28.2 µM; in the test on LOX IMVI melanoma it was 22.1 µM; in the test with MDA-N, 27.9 µM; with NCI/ADR-RES ovarian, 58.2 µM; in the test on SF-295 CNS, 26.1 µM. Besides, the TGI in the test with SK-MEL-28 melanoma stood at 31.9 µM; in the test on SW-620 colon it was 27.1 µM; in the test on TK-10 renal it was 30.2 µM; with UO-31 renal, 26 µM.
Take `N.N.NCCCCN.O=C([O-])CCl.O=C([O-])CCl.O=C([O-])CCl.O=C([O-])CCl.[Pt+4].[Pt+4]`: the TGI in the test on A498 renal, with EKVX NSCLC, in the test on HOP-62 NSCLC, in the test with LOX IMVI melanoma, in the test on SF-295 CNS and in the test on SK-MEL-28 melanoma was > 50 µM in each case. Besides, the TGI with SW-620 colon, in the test on TK-10 renal and in the test on UO-31 renal was > 50 µM each time.
Consider `O=C1CCCn2c3ccccc3c3ccnc1c32`, for which the TGI in the test with A498 renal is 32.2 µM; in the test on EKVX NSCLC it was > 85.2 µM; with HOP-62 NSCLC, > 100 µM; with LOX IMVI melanoma, > 100 µM; in the test on NCI/ADR-RES ovarian it was > 100 µM; in the test with SF-295 CNS, > 100 µM. Besides, the TGI in the test with SK-MEL-28 melanoma, with SW-620 colon and with UO-31 renal was > 100 µM each time.
Turning to `c1ccc(C[P+]2(c3ccccc3)CCCCC2)cc1`, the TGI with A498 renal, in the test with EKVX NSCLC, with HOP-62 NSCLC, in the test on LOX IMVI melanoma, with SF-295 CNS and with SK-MEL-28 melanoma was > 100 µM throughout. For the same compound, the TGI in the test on SW-620 colon, with TK-10 renal and with UO-31 renal was > 100 µM each time.
As for `O=C1NC(N2CCOCC2)=N/C1=C\c1ccccc1`, the TGI with EKVX NSCLC, with HOP-62 NSCLC, in the test with LOX IMVI melanoma, in the test with MDA-N, in the test on NCI/ADR-RES ovarian and in the test with SF-295 CNS was > 100 µM throughout. Besides, the TGI with SK-MEL-28 melanoma, in the test on SW-620 colon, with TK-10 renal and in the test on UO-31 renal was > 100 µM each time.
For the compound `CC1(C)OC2C(CO)OC(/N=C(\NC#N)Oc3ccccc3)C2O1` (centres undefined), the TGI with EKVX NSCLC, in the test on HOP-62 NSCLC, in the test on LOX IMVI melanoma, with SF-295 CNS, in the test with SK-MEL-28 melanoma and in the test on SW-620 colon was > 100 µM each time. For the same compound, the TGI in the test on TK-10 renal and with UO-31 renal was > 100 µM throughout.
Regarding `Brc1ccc2c(c1)[C@H]1CCc3c([nH]c4ccccc34)[C@H]1N2`, the TGI in the test with EKVX NSCLC turned out to be 22.6 µM; in the test on HOP-62 NSCLC it was 25.6 µM; with LOX IMVI melanoma, 19.1 µM; in the test with MDA-N, 28.7 µM; in the test with NCI/ADR-RES ovarian, 29.6 µM; in the test with SF-295 CNS it was 24.5 µM. For the same compound, the TGI with SK-MEL-28 melanoma was found to be 27 µM; in the test with SW-620 colon, 27.4 µM; in the test with TK-10 renal it was 23.3 µM; with UO-31 renal, 26.9 µM.
In the case of `NCCCCN(CCCN)C(=O)OCc1ccccc1`, the TGI in the test with A498 renal, in the test with EKVX NSCLC, with HOP-62 NSCLC, in the test on NCI/ADR-RES ovarian, with SF-295 CNS and in the test on SK-MEL-28 melanoma was > 100 µM each time. Moreover, the TGI in the test with SW-620 colon, in the test on TK-10 renal and in the test on UO-31 renal was > 100 µM in each case.
On to `CC(=O)Nc1ccc(S(=O)(=O)/N=c2/sc(S(N)(=O)=O)nn2C)cc1`, for which the TGI with A498 renal, with EKVX NSCLC, with HOP-62 NSCLC, in the test with NCI/ADR-RES ovarian, in the test with SF-295 CNS and in the test with SK-MEL-28 melanoma was > 100 µM each time. Moreover, the TGI in the test with SW-620 colon, with TK-10 renal and in the test with UO-31 renal was > 100 µM throughout.
For `CC(C)CC(NC(=O)C(CCC(=O)OCc1ccccc1)NC(=O)OC(C)(C)C)C(=O)NC(COCc1ccccc1)C(=O)NC(Cc1ccccc1)C(=O)O` (centres undefined) (Boc-E(OBn)LS(Bn)F-OH; configuration not given here), the TGI in the test on A498 renal, with EKVX NSCLC, in the test with HOP-62 NSCLC, with MDA-N, with SK-MEL-28 melanoma and in the test on SW-620 colon was > 100 µM in each case. The TGI with TK-10 renal and in the test on UO-31 renal was > 100 µM throughout.
`O=C(/C=C/c1ccco1)c1ccc(Nc2ccnc3cc(Cl)ccc23)cc1`: the GI50 was 1.29 µM with A498 renal; > 100 µM with EKVX NSCLC; > 100 µM in the test on HOP-62 NSCLC; 6.41 µM in the test on LOX IMVI melanoma; 75.8 µM in the test with NCI/ADR-RES ovarian; > 100 µM in the test with SF-295 CNS. In addition, the GI50 in the test on SK-MEL-28 melanoma was 74.9 µM; in the test on SW-620 colon, 3.51 µM; with TK-10 renal, > 100 µM. Also, the TGI in the test on A498 renal, with EKVX NSCLC, in the test with HOP-62 NSCLC, in the test on LOX IMVI melanoma, with NCI/ADR-RES ovarian and with SF-295 CNS was > 100 µM throughout. The TGI in the test on SK-MEL-28 melanoma, in the test with SW-620 colon and with TK-10 renal was > 100 µM throughout.
`COC(=O)[C@@]12CC3CN(Cc4c1[nH]c1ccccc41)C2CC3=O`: the TGI in the test with EKVX NSCLC, in the test on HOP-62 NSCLC, in the test with LOX IMVI melanoma, with MDA-N, in the test with NCI/ADR-RES ovarian and in the test on SF-295 CNS was > 100 µM each time. Besides, the TGI in the test on SK-MEL-28 melanoma, in the test with SW-620 colon and in the test on TK-10 renal was > 100 µM each time.
Regarding `O=C1CCCc2ccc3c(c21)CC1(Cc2cc4c(cc2C1)CCCC4)C3`, the TGI was > 100 µM with A498 renal; 81.9 µM with EKVX NSCLC; 57.1 µM in the test with HOP-62 NSCLC; 28.5 µM in the test on LOX IMVI melanoma; > 100 µM with NCI/ADR-RES ovarian; 75.7 µM with SF-295 CNS. Also, the TGI is 63.7 µM with SK-MEL-28 melanoma, 41.7 µM in the test on SW-620 colon, 46.2 µM with TK-10 renal and 32.4 µM in the test with UO-31 renal.
Take `CC12CCC3=C(CSC4=C3CSc3ccccc34)C1=CCCC2=O` (centres undefined): the TGI with EKVX NSCLC, in the test on HOP-62 NSCLC, in the test with LOX IMVI melanoma, in the test with SK-MEL-28 melanoma, with SW-620 colon and in the test with TK-10 renal was > 100 µM in each case. Moreover, the TGI in the test on UO-31 renal was > 100 µM.
Take `O=c1[nH]c(=O)n(COCCO)cc1-c1ccccc1`: the TGI in the test with EKVX NSCLC, with HOP-62 NSCLC, in the test with LOX IMVI melanoma, in the test with MDA-N, in the test on NCI/ADR-RES ovarian and in the test on SF-295 CNS was > 100 µM throughout. Further, the TGI in the test with SK-MEL-28 melanoma, in the test with SW-620 colon, with TK-10 renal and in the test on UO-31 renal was > 100 µM in each case.
With `O=C(O)c1cc(/C=C/c2ccc(O)c(O)c2)ccc1O`, the TGI in the test on EKVX NSCLC, with HOP-62 NSCLC, with LOX IMVI melanoma, in the test with MDA-N, with NCI/ADR-RES ovarian and in the test on SF-295 CNS was > 100 µM in each case. Further, the TGI in the test with SK-MEL-28 melanoma, with TK-10 renal and with UO-31 renal was > 100 µM in each case.
Take `COc1ccc(/C=N/N=C(N)N)c(C(=O)O)c1OC`: the TGI in the test on A498 renal, in the test with EKVX NSCLC, with SF-295 CNS, in the test with SK-MEL-28 melanoma, in the test with SW-620 colon and in the test with TK-10 renal was > 100 µM throughout. Further, the TGI in the test on UO-31 renal was > 100 µM.
Consider `O=C(CSCC(=O)N/N=C/c1ccc(F)cc1)N/N=C/c1ccc(F)cc1`, for which the TGI in the test on A498 renal, in the test on EKVX NSCLC, with HOP-62 NSCLC, with NCI/ADR-RES ovarian, in the test with SK-MEL-28 melanoma and in the test with SW-620 colon was > 100 µM each time. Besides, the TGI in the test with TK-10 renal and with UO-31 renal was > 100 µM each time.
